Test results published in patent US20030211995A1, “Methods and formulations for eradicating or alleviating staphylococcal nasal colonization using lysostaphin” (priority 2001, published 2003).
Read-outs that look alike come from different tables or passages of the source. Marks after values point to notes of the source that are not given here. Where a SMILES comes first, the peptide text is derived from it.

Assays:
S. aureus (ATCC 49521) = experiment: Lysostaphin MIC assay, outgrowth of lysostaphin resistance with or without sub-MIC bacitracin or nisin; format: cell-based; design: key to growth in lysostaphin MIC assay: G = Normal growth; Blank = no growth; R = resistance outgrowth as determined by addition of 20 μg/ml lysostaphin for 4 hrs following initial overnight incubation; conditions: for growth in lysostaphin MIC assay: replicate rows
Method: When lysostaphin is tested in a standard “Minimum Inhibitory Concentration” (MIC) assay, outgrowth of S. aureus is sometime observed above the MIC for almost all strains of S. aureus examined. On further testing, these outgrowth wells are found to contain lysostaphin-resistant S. aureus with MICs many dilutions above the MIC of the parental strain. […] This Example illustrates that the addition of the antibacterial agent bacitracin, eliminates lysostaphin-resistant outgrowths in vitro, and may likewise reduce or eliminate resistant outgrowths in vivo. […] Of course, nasal formulations comprising antibacterial agents above the MIC for that particular agent are also within the scope of this invention.
In this experiment a NCCLS standard MIC is conducted with the modification of adding 0.1% BSA to the assay. Rows 1-4 are lysostaphin MICs conducted in the absence of bacitracin while rows 5-8 are lysostaphin MICs conducted in the presence of bacitracin (5 μg/ml).
(§1) Lysostaphin MIC assays were conducted in the presence or absence of subinhibitory concentrations (four-fold dilution below MIC) of either bacitracin or nisin to determine if either substance prevented the outgrowth of lysostaphin resistance in these assays. This is as previously described in Example 14, above.

[1] = test system: S. aureus strain MBT 5040; experiment: MIC by microtiter dilution assay; format: cell-based
Method: At the same time, a Columbia agar plate containing 2% NaCl (CSA) was inoculated with S. aureus strain MBT 5040 from a frozen stock. […] The MIC of a drug for a particular bacterial strain is the minimum concentration of the drug that inhibits normal growth of that particular bacterial strain.
Any detected S. aureus after lysostaphin treatment were tested for lysostaphin resistance by microtiter dilution assay. […] Plates were prepared by making lysostaphin dilutions in cation-adjusted Mueller Hinton broth+2%NaCl and 0.1%BSA (CAMHB+). The CAMHB+2% NaCl was made first, autoclaved, and then sterile 30% BSA was added to equal 0.1% BSA concentration. BSA prevents nonspecific lysostaphin interaction with plastic. The final volume of CAMHB+ in each well was 50 μl. Dilutions were 1:2, prepared by mixing 50 μl of the previous dilution into 50 μl of fresh media. The final row on the plate was left with no lysostaphin added as a control for growth. […] Overnight cultures were diluted ˜1:1000, as determined empirically, to yield a final concentration of 5×10^5/ml by measuring the optical density at 650 nm (OD650). […] The minimal inhibitory concentration (MIC) of lysostaphin, the lowest concentration of lysostaphin that prevents normal growth, was determined by reading the OD650 on a microplate reader.
Plates were incubated at room temperature for 6 to 18 hours. The OD650 was determined.

MBT 5040 LysoR = experiment: MIC of lysostaphin for lysostaphin-resistant variant; format: cell-based, S. aureus; conditions: variant isolated in vitro
Method: Any detected S. aureus after lysostaphin treatment were tested for lysostaphin resistance by microtiter dilution assay. Lysostaphin was resuspended in sterile PBS, aliquotted and stored at −80° C. […] Once thawed, an aliquot of lysostaphin was stored at 4° C. and used for no more than two weeks. Plates were prepared by making lysostaphin dilutions in cation-adjusted Mueller Hinton broth+2%NaCl and 0.1%BSA (CAMHB+). The CAMHB+2% NaCl was made first, autoclaved, and then sterile 30% BSA was added to equal 0.1% BSA concentration. […] The final volume of CAMHB+ in each well was 50 μl. Dilutions were 1:2, prepared by mixing 50 μl of the previous dilution into 50 μl of fresh media. The final row on the plate was left with no lysostaphin added as a control for growth. A starting concentration of 1 μg/ml lysostaphin was used as the stock concentration. […] Overnight cultures were diluted ˜1:1000, as determined empirically, to yield a final concentration of 5×10^5/ml by measuring the optical density at 650 nm (OD650). […] The minimal inhibitory concentration (MIC) of lysostaphin, the lowest concentration of lysostaphin that prevents normal growth, was determined by reading the OD650 on a microplate reader.
Plates were incubated at room temperature for 6 to 18 hours. The OD650 was determined. […]

[2] = test system: S. aureus strain SA 3865 (mupirocin resistant); experiment: Cotton rat nasal colonization model, single dose of cream; format: in vivo; conditions: Table 6d; single dose of 0.5% lysostaphin cream
S. aureus MBT 5040 = experiment: Cotton rat model, cream instilled before instillation of bacteria (blocking of colonization); format: in vivo; conditions: administered in a viscous formulation such as a cream
Method: To determine how long lysostaphin, when administered in a cream formulation, remains active in the nares, a single dose of 2% lysostaphin cream was instilled in cotton rat noses 48 hours, 24 hours, and 8 hours prior to instillation of 10^9 CFU of S. aureus MBT 5040. Control animals received control cream, without lysostaphin, 8 hours prior to receiving bacteria. Six days after introduction of the bacteria, each of the 5 animals per experimental group were sacrificed and the noses checked for S. aureus colonization.

Type 5 S. aureus (MSSA) = experiment: Cotton rat nasal colonization model, single dose of cream; format: in vivo; conditions: Table 6d; single dose of 0.5% lysostaphin cream
Method: (§2) On the day of instillation, S. aureus MBT 5040 was harvested from the CSA plate by scraping colonies into sterile. PBS (1 ml/animal to be instilled) until the percent transmittance of the sample was approximately 10% at […] in a 10 mm path length. The bacteria were pelleted by centrifugation and then resuspended in 10 μl/animal of sterile PBS. Cotton rats were sedated with 200 μl of Ketamine (25 mg/kg), Rompun (2.5 mg/kg), and Acepromazine (2.5 mg/kg) delivered intramuscularly. Ten microliters, approximately 10^9 S. aureus CFUs per animal, of MBT 5040 in PBS was instilled in the nares using a micropipette without touching the nares. Specifically, a drop of bacterial inoculum was placed on the nostril with a micropipettor, without touching the nose. The animal's regular process of respiration then inhaled the drop into the nares. After introduction of the MBT 5040 bacteria, the cotton rats were returned to normal water, without nafcillin. Unless otherwise indicated, this method was consistently used to instill S. aureus in the nares for all examples discussed below.
(§3) Ten cotton rats were nasally instilled with MBT 5040 S. aureus. On day 4 and day 5 post-instillation, the 5 animals were treated with a 0.5% lysostaphin cream and 5 animals were treated with a cream without lysostaphin added. Cream formulations were delivered into the nares of anaesthetized cotton rats by syringe through an Angiocath™ 22 GA flexible catheter (Becton Dickinson). The catheter was inserted approximately 3 mm into each of the nares and then drawn back as the cream was delivered. The noses of the cotton rats were massaged well following cream delivery to ensure good dispersal of cream. The dose of cream delivered to the nares was approximately 30-50 μl. Due to the cream's highly viscous nature, it was difficult to precisely gauge to volume of creams delivered to the nares. Unless otherwise indicated, this method of cream delivery into the nares was used throughout the examples below.
(§4) To determine the efficacy of a single dose of 0.5% lysostaphin cream in eradicating S. aureus nasal colonization, cotton rats were instilled with either MBT 5040 (MRSA), Type 5 S. aureus (sensitive to methicillin; MSSA), or Type 8 S. aureus (MSSA). Half of the animals in each group were treated once on day 5 post-instillation with negative control cream and other half of the animals were treated on the same day with 0.5% lysostaphin cream.

Type 8 S. aureus (MSSA) = experiment: as above; format: in vivo; conditions: Table 6d; single dose of 0.5% lysostaphin cream
Method: as §2, §3, §4

S. aureus = experiment: Proteinase K neutralization of lysostaphin activity in vitro; format: cell-based; conditions: 10^5 S. aureus in PBS; lysostaphin 10 mcg and/or 10 mg/ml Proteinase K; 20 minutes at room temperature
Method: Lysostaphin (10 mcg) was added to some samples of 10^5 S. aureus in PBS in the presence or absence of 10 mg/ml Proteinase K. The samples were incubated for 20 minutes at room temperatures and then 100 microliter aliquots were plated on blood agar.

SA5 USU = experiment: Lysostaphin MIC assay, outgrowth of lysostaphin resistance with or without sub-MIC bacitracin or nisin; format: cell-based, S. aureus; conditions: nisin or bacitracin at four-fold dilution below MIC
Method: as §1

SA5 Sam = experiment: as above; format: cell-based, S. aureus; conditions: nisin or bacitracin at four-fold dilution below MIC
Method: as §1

SA8 Sam = experiment: as above; format: cell-based, S. aureus; conditions: nisin or bacitracin at four-fold dilution below MIC
Method: as §1

[3] = test system: S. aureus strain MRSA 12/12; experiment: Cotton rat nasal colonization model, single dose of cream; format: in vivo; conditions: Table 6d; single dose of 0.5% lysostaphin cream
Method: To further explore the relationship between lysostaphin-resistance and nasal colonization, treatment of S. aureus strain MRSA 12/12 nasal colonization with a single dose of 0.5% lysostaphin cream was also examined. MRSA 12/12 colonized the cotton rat nares (Table 6d), and a single treatment of 0.5% lysostaphin cream also eradicated nasal colonization by this strain. Nasal supernatant from treated animals was plated on both TSA/NaCl+nafcillin and TSA/NaCl alone since when MRSA become lysostaphin-resistant they revert to MSSA (17).

CC[C@H](C)[C@H](N)C1=N[C@H](C(=O)N[C@@H](CC(C)C)C(=O)N[C@H](CCC(=O)O)C(=O)N[C@H](C(=O)N[C@H]2CCCCNC(=O)[C@H](CC(N)=O)NC(=O)[C@@H](CC(=O)O)NC(=O)[C@H](Cc3cnc[nH]3)NC(=O)[C@@H](Cc3ccccc3)NC(=O)[C@H]([C@@H](C)CC)NC(=O)[C@@H](CCCN)NC2=O)[C@@H](C)CC)CS1 [Bacitracin, bacitracin, reference compound] (HELM PEPTIDE1{[CC[C@H](C)[C@H](N)C1=N[C@H](C(=O)[*:2])CS1].L.[dE].I.K.[NCCC[C@@H](N[*:1])C(=O)[*:2]].I.[dF].H.[dD].N}$PEPTIDE1,PEPTIDE1,5:R3-11:R2$$$V2.0)
growth in lysostaphin MIC assay (S. aureus (ATCC 49521); lysostaphin 0 ng/ml, bacitracin 5 μg/ml): G^

COc1cccc(OC)c1C(=O)N[C@@H]1C(=O)N2[C@@H]1SC(C)(C)[C@@H]2C(=O)O [methicillin, reference compound]
MIC ([1]; Staphylococcus aureus, MBT5040, read-out: MIC): > 36 mg/L

Lysostaphin: antibacterial endopeptidase cleaving pentaglycine bridges of staphylococcal cell walls; Ambicin L (recombinant lysostaphin) used in Examples 1-10
MIC [1]: 0.064 mg/L | MIC (MBT 5040 LysoR): > 32 mg/L | Animals Colonized/Animals Tested [2]: 0/5 | Mean Colonization [2]: 0 | time lysostaphin remains active in the nares after administration (S. aureus MBT 5040): at least 48 hours | Animals Colonized/Animals Tested (Type 5 S. aureus (MSSA)): 0/5 | Mean Colonization (Type 5 S. aureus (MSSA)): 0 | Animals Colonized/Animals Tested (Type 8 S. aureus (MSSA)): 0/5 | Mean Colonization (Type 8 S. aureus (MSSA)): 0 | CFUs Recovered (S. aureus): 0 CFUs | Percentage of wells above lysostaphin MIC that have outgrowth of lysostaphin-resistance (SA5 USU): 14% | Percentage of wells above lysostaphin MIC that have outgrowth of lysostaphin-resistance (SA5 Sam): 18% | Percentage of wells above lysostaphin MIC that have outgrowth of lysostaphin-resistance (SA8 Sam): 58% | growth in lysostaphin MIC assay (S. aureus (ATCC 49521); lysostaphin 0.25 ng/ml, no bacitracin): G | growth in lysostaphin MIC assay (S. aureus (ATCC 49521); lysostaphin 0.5 ng/ml, no bacitracin): G | growth in lysostaphin MIC assay (S. aureus (ATCC 49521); lysostaphin 1 ng/ml, no bacitracin): G | growth in lysostaphin MIC assay (S. aureus (ATCC 49521); lysostaphin 2 ng/ml, no bacitracin): R | growth in lysostaphin MIC assay (S. aureus (ATCC 49521); lysostaphin 4 ng/ml, no bacitracin): R^3 and R^ | growth in lysostaphin MIC assay (S. aureus (ATCC 49521); lysostaphin 8 ng/ml, no bacitracin): R | growth in lysostaphin MIC assay (S. aureus (ATCC 49521); lysostaphin 16 ng/ml, no bacitracin): R | growth in lysostaphin MIC assay (S. aureus (ATCC 49521); lysostaphin 32 ng/ml, no bacitracin): R | growth in lysostaphin MIC assay (S. aureus (ATCC 49521); lysostaphin 125 ng/ml, no bacitracin): R | growth in lysostaphin MIC assay (S. aureus (ATCC 49521); lysostaphin 250 ng/ml, no bacitracin): R | Percentage of wells above lysostaphin MIC that have outgrowth of lysostaphin-resistance (S. aureus (ATCC 49521); nisin or bacitracin at four-fold dilution below MIC): 31^a % | Animals Colonized/Animals Tested [3]: 0/5 | Mean Colonization [3]: 0
